In patent US20040009464A1, “Methods for identifying compounds for inhibition of neoplastic lesions, and pharmacetical compositions containing such compounds” (priority 1998, published 2004):
Where two headings read alike, the source gives them in different places.

Tests used:
[1] = molecular target: T1, cGMP binding sites of GST-cGB-PDE5 fusion protein (Homo sapiens, UniProt O76074); test: cGMP binding assay with GST-cGB-PDE5 fusion protein
T1 construct: made in house; host or cells: E. coli BL21 (DE3)

[2] = molecular target: T2, PDE peak A (PDE5) from SW480 (Homo sapiens, UniProt O76074); test: cGMP hydrolysis by PDE peak A (PDE5) isolated from SW480 cells; assay type: biochemical
T2 construct: The novel PDE activity was first found in SW480 colon cancer cell lines; endogenous in cells; host or cells: SW480 colon cancer cells; DEAE-Trisacryl M fraction (peak A)

[3] = molecular target: T3, purified cyclooxygenase (Type 1) from ram seminal vesicles (Ovis aries, UniProt P05979); test: COX inhibition assay with purified cyclooxygenase; set-up: COX Inhibition: key to the marks not given beside the values; conditions: for COX-I inhibition: FIG. 5
T3 sequence (P05979 25-600): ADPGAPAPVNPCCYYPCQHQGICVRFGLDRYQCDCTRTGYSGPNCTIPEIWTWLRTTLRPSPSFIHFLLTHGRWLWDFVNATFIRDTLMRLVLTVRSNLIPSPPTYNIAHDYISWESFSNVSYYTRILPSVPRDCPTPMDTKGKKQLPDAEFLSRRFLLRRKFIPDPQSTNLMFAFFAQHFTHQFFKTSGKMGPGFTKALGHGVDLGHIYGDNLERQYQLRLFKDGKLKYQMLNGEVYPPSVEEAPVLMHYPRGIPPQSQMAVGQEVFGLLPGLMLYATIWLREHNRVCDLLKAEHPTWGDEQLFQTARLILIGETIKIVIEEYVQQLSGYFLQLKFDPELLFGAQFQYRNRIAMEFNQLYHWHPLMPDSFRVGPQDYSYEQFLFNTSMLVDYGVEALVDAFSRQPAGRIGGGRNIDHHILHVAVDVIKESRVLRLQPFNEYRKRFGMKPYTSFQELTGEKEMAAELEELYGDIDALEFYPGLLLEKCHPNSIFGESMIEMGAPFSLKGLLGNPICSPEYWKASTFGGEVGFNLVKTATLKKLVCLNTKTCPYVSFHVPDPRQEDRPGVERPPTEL

[4] = test system: SW-480 colon adenocarcinoma cells; test: Apoptosis fold induction protocol (DNA fragmentation ELISA); assay type: cell-based, human; set-up: key to the marks not given beside the values; conditions: qualitative activity profile
[5] = test system: premalignant lesions in mouse mammary gland organ culture; test: Mammary gland organ culture model; assay type: cell-based; conditions: FIG. 17
Text: Test compounds identified by the above methods can be tested for antineoplastic activity by their ability to inhibit the incidence of pre-neoplastic lesions in a mammary gland organ culture system. This mouse mammary gland organ culture technique has been successfully used by other investigators to study the effects of known antineoplastic agents such as certain NSAIDs, retinoids, tamoxifen, selenium, and certain natural products, and is useful for validation of the screening method of the present invention.
For example, female BALB/c mice can be treated with a combination of estradiol and progesterone daily, in order to prime the glands to be responsive to hormones in vitro. The animals are sacrificed, and thoracic mammary glands are excised aseptically and incubated for ten days in growth media supplemented with insulin, prolactin, hydrocortisone, and aldosterone. DMBA (7,12-dimethylbenz(a)anthracene) is added to medium to induce the formation of premalignant lesions Fully developed glands are then deprived of prolactin, hydrocortisone, and aldosterone, resulting in the regression of the glands but not the pre-malignant lesions.
The test compound is dissolved in DMSO and added to the culture media for the duration of the culture period. At the end of the culture period, the glands are fixed in 10% formalin, stained with alum camine, and mounted on glass slides. The incidence of forming mammary lesions is the ratio of the glands with mammary lesions to […]. The incidence of mammary lesions in test compound treated glands is compared with that of the untreated glands.
The extent of the area occupied by the mammary lesions can be quantitated by projecting an image of the gland onto a digitation pad. The area covered by the gland is traced on the pad and considered as 100% of the area. The space covered by each of the non-regressed structures is also outlined on the digitization pad and quantitated by the computer.
Mammary gland organ culture experiment were performed as previously described (Mehta and Moon, Cancer Research, 46: 5832-5835, 1986). […]

[6] = test system: novel cGMP-specific PDE peak B from SW480; test: cGMP hydrolysis by novel cGMP-specific PDE peak B (Section IA) from SW480 cells; assay type: biochemical, human; conditions: for Ratio (IC50 Peak A/Peak B): cGMP hydrolysis
HT-29 cells = test: Cyclic nucleotide (cGMP, cAMP) levels in HT-29 cells by radioimmunoassay; assay type: cell-based, human; conditions: for effect on cAMP levels: HT-29 cells
[7] = test system: PDE4 purified from human colon HT-29 cultured tumor cells; test: PDE4 inhibition assay; assay type: biochemical; conditions: PDE4 from HT-29 cells
Protocol: (Thompson, W. J., Teraski, W. L., Epstein, P. M., Strada, S. J., Advances in Cyclic Nucleotide Research, 10:69-92, 1979, which is incorporated herein by reference). […] The mixture is incubated at 30° C. for 10 minutes with isolated PDE of this invention. Reactions are terminated, for example, by boiling the reaction mixture for 75 seconds. After cooling on ice, 100 μl of 0.5 mg/mL snake venom (O. Hannah venom available from Sigma) is added and incubated for 10 minutes at 30° C. This reaction is then terminated by the addition of an alcohol, e.g. 1 mL of 100% methanol. Assay samples are applied to 1 mL Dowex 1-X8 column; and washed with 1 mL of 100% methanol. The amount of radioactivity in the breakthrough and the wash from the column is combined and measured with a scintillation counter. The degree of phosphodiesterase inhibition is determined by calculating the amount of radioactivity in drug-treated reactions and comparing against a control sample (a reaction mixture lacking the tested compound but with drug solvent).

A-427, Lung = test: Growth inhibition, SRB assay, A-427; assay type: cell-based; conditions: Homo sapiens
Text: (§1) A compound's ability to inhibit tumor cell growth can be measured using the HT-29 human colon carcinoma cell line obtained from ATCC. HT-29 cells have previously been characterized as a relevant colon tumor cell culture model (Fogh, J., and Trempe, G. In. Human Tumor Cells in Vitro, J. Fogh (eds.), Plenum Press, New York, pp. 115-159, 1975). HT-29 cells are maintained in RPMI media supplemented with 5% fetal bovine calf serum (Gemini Bioproducts, Inc., Carlsbad, Calif.) and 2 mm glutamine, and 1% antibiotic-antimycotic in a humidified atmosphere of 95% air and 5% CO2 at 37° C. Briefly, HT-29 cells are plated at a density of 500 cells/well in 96 well microtiter plates and incubated for 24 hours at 37° C. prior to the addition of compound. […] After six days in culture, the cells are fixed by the addition of cold trichloroacetic acid to a final concentration of 10% and protein levels are measured using the sulforhodamine B (SRB) colorimetric protein stain assay as previously described by Skehan, P., Storeng, R., Scudiero, D., Monks, A., McMahon, J., Vistica, D., Warren, J. T., Bokesch, H., Kenney, S., and Boyd, M. R., “New Colorimetric Assay For Anticancer-Drug Screening,” J. Natl Cancer Inst. […]
(§2) To show the effectiveness of this screening method on various forms of neoplasia, compounds were tested on numerous cell lines. […] The IC50 values were determined by the SRB assay. […]

HCT116, Colon = test: Growth inhibition, SRB assay, HCT116; assay type: cell-based; conditions: Homo sapiens, HCT-116
Text: as §1, §2

[8] = test system: cGMP PDE purified from human colon HT-29 cultured tumor cells; test: cGMP PDE inhibition assay; assay type: biochemical; set-up: PDE Inhibition: key to the marks not given beside the values

Question: `CCCCOC1C2OP(=O)(O)OCC2OC1n1cnc2c(=O)[nH]c(N)nc21` (centres unmarked) [2′-O-butyl-cGMP] was tested. Which “competition with cGMP (2 μM) in binding of GST-cGB-PDE5” value (“competition with cGMP (2 μM)” for short) ([1]; FIG. 24) did it give?
Answer: The value was “did not compete”.

Question: `CCCc1nn(C)c2c(=O)[nH]c(-c3cc(S(=O)(=O)N4CCN(C)CC4)ccc3OCC)nc12` [Sildenafil] was tested. Which “inhibition of activity of peak A” value [2] did it give?
Answer: Its value is “inhibited activity of peak A”.

Question: For `O=c1ccn([C@@H]2O[C@@H]3COP(=O)(O)O[C@H]3[C@H]2O)c(=O)[nH]1` [cUMP], which “competition with cGMP (2 μM)” value ([1]; FIG. 24) is on record?
Answer: The value was “did not compete”.

Question: For `COc1cc(C=C2C(C)=C(CC(=O)O)c3cc(F)ccc32)cc(OC)c1OC` [Compound B, (Z)-5-Fluoro-2-methyl-1-(3,4,5-trimethoxybenzylidene)-3-acetic acid], which “competition with cGMP (2 μM)” value ([1]; FIG. 24) is on record?
Answer: The value was “None of the PDE5 inhibitors showed any competition”.

Question: What about the “COX-I inhibition” value [3] of the same compound?
Answer: Its value is “neither test compound B and E significantly inhibit COX-I”.

Question: What about the Apoptosis [4] of the same compound?
Answer: The Apoptosis was “+++”.

Question: With `CCCOc1ccccc1-c1nc2nn[nH]c2c(=O)[nH]1` [Zaprinast] as the compound, how does the “competition with cGMP (2 μM)” value ([1]; FIG. 24) read?
Answer: The value was “None of the PDE5 inhibitors showed any competition”.

Question: Which “inhibition of premalignant lesions in mammary gland organ culture” value [5] does the source give for `CC1=C(CC(=O)O)c2cc(F)ccc2/C1=C\c1ccc([S+](C)[O-])cc1` (centres unmarked) [sulindac] here?
Answer: Its value is “effectively inhibit the formation of premalignant lesions”.

Question: How did the “Ratio (IC50 Peak A/Peak B)” value [6] turn out when `CC1(C)C(=O)Nc2ccc(C3=NNC(=O)CC3)cc21` [Indolidan] was run?
Answer: The value was <0.31.

Question: Which “competition with cGMP (2 μM)” value ([1]; FIG. 24) does the source give for `Nc1nc2c(nc(Br)n2[C@@H]2O[C@@H]3COP(=O)(O)O[C@H]3[C@H]2O)c(=O)[nH]1` [Compound 8-bromo-cGMP, 8-bromo-cGMP] here?
Answer: The value was “can partially compete”.

Question: How did the “competition with cGMP (2 μM)” value ([1]; FIG. 24) turn out when `Nc1ccn([C@@H]2O[C@@H]3COP(=O)(O)O[C@H]3[C@H]2O)c(=O)n1` [cCMP] was run?
Answer: The value was “did not compete”.

Question: Which “competition with cGMP (2 μM)” value ([1]; FIG. 24) does the source give for `O=c1[nH]cnc2c1ncn2[C@@H]1O[C@@H]2COP(=O)(O)O[C@H]2[C@H]1O` [Cyclic IMP] here?
Answer: The value was “can partially compete”.

Question: With `COc1ccc(C2CNC(=O)C2)cc1OC1CCCC1` (centres unmarked) [Rolipram] as the compound, how does the “effect on cAMP levels” value (HT-29 cells) read?
Answer: Its value is “increased cAMP”.

Question: How did the “competition with cGMP (2 μM)” value [1] turn out when `Nc1ncnc2c1ncn2[C@@H]1O[C@@H]2COP(=O)(O)O[C@H]2[C@H]1O` [Cyclic AMP] was run?
Answer: The value was “did not compete”.

Question: Which “competition with cGMP (2 μM)” value ([1]; FIG. 24) does the source give for `CSc1ccc(/C=C2/C(C)=C(CC(=O)O)c3cc(F)ccc32)cc1` [Sulindac sulfide] here?
Answer: Its value is “None of the PDE5 inhibitors showed any competition”.

Question: And the IC50 [7]?
Answer: The IC50 was 41 µM.

Question: What about the IC50 (A-427, Lung) of the same compound?
Answer: The IC50 was 90 µM.

Question: And the “effect on cAMP levels” value (HT-29 cells)?
Answer: The value was “unaffected”.

Question: And the EC50 (HT-29 cells; Homo sapiens, 0.5 h, read-out: EC50 for increase of cGMP levels, HT-29 cells treated 30 minutes)?
Answer: Its EC50 is 7.3 µM.

Question: What about the “inhibition of premalignant lesions in mammary gland organ culture” value [5] of the same compound?
Answer: Its value is “inactive”.

Question: What about the “COX Inhibition” value ([3]; qualitative activity profile) of the same compound?
Answer: The value was “++++”.

Question: What about the inhibition at 100 µM ([3]; read-out: Cyclooxygenase inhibitory activity, % Inhibition at 100 μM) of the same compound?
Answer: The inhibition at 100 µM was 97%.

Question: What about the IC50 (HCT116, Colon) of the same compound?
Answer: The IC50 was 45 µM.

Question: What about the “cGMP PDE inhibitory activity, % Inhibition at 10 μM” value ([8]; 10 μM) of the same compound?
Answer: The value was 97%.

Question: And the “PDE Inhibition” value ([8]; qualitative activity profile)?
Answer: Its value is “+++”.

Question: And the IC50 ([8]; read-out: IC50 for inhibition of cGMP PDE, cGMP PDE from HT-29 cells)?
Answer: Its IC50 is 17 µM.

Question: What about the Apoptosis [4] of the same compound?
Answer: Its Apoptosis is “+++”.

Question: How did the “competition with cGMP (2 μM)” value ([1]; FIG. 24) turn out when `O=C([O-])C1CCN(c2nc(NCc3ccc4c(c3)OCO4)c3cc(Cl)ccc3n2)CC1.[Na+]` [Compound E4021] was run?
Answer: Its value is “None of the PDE5 inhibitors showed any competition”.

Question: For `COc1cc(/C=C2/C(C)=C(CC(=O)NCc3ccccc3)c3cc(F)ccc32)cc(OC)c1OC` [Compound E, (Z)-5-Fluoro-2-methyl-1-(3,4,5-trimethoxybenzylidene)-3-indenylacetamide, N-benzyl], which “competitive (with cGMP) binding to PDE5 peak A” value [2] is on record?
Answer: The value was “does competitively (with cGMP) bind to PDE 5”.

Question: And the “competition with cGMP (2 μM)” value ([1]; FIG. 24)?
Answer: The value was “None of the PDE5 inhibitors showed any competition”.

Question: What about the “competitive (with cGMP) binding to PDE peak B” value [6] of the same compound?
Answer: Its value is “competitively (with cGMP) binds to PDE peak B”.

Question: What about the “Ratio (IC50 Peak A/Peak B)” value [6] of the same compound?
Answer: The value was 1.0.

Question: What about the “COX-I inhibition” value [3] of the same compound?
Answer: The value was “neither test compound B and E significantly inhibit COX-I”.

Question: And the Apoptosis [4]?
Answer: The Apoptosis was “++++”.

Question: For `CCCCOC1C2OP(=O)(O)OCC2OC1n1cnc2c(N)ncnc21` (centres unmarked) [2′-O-butyl-cAMP], which “competition with cGMP (2 μM)” value ([1]; FIG. 24) is on record?
Answer: Its value is “did not compete”.
